Patent US10874743B2, “IRAK degraders and uses thereof” (Kymera Therapeutics, Inc., priority 2017, dated 2020)

Molecular target: T1, IRAK4 (Homo sapiens, UniProt Q9NWZ3)
T1 sequence (Q9NWZ3 1-460): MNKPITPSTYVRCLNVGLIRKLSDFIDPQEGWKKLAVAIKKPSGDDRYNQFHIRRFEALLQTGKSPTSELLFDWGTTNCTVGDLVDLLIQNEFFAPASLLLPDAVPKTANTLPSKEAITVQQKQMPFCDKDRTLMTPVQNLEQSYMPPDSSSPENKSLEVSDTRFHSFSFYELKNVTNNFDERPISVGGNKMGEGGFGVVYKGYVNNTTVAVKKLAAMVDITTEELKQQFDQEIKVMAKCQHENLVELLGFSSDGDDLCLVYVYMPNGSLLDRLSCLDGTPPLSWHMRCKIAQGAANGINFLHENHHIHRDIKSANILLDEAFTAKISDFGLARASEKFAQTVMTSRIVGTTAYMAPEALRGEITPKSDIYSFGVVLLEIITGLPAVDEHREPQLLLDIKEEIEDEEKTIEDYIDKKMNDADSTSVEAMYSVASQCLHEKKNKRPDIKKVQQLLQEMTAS
Test: OCI-LY-10 degradation assay (western blot, % IRAK4 degraded after 4 hours)
Assay type: cell-based
Parameters: endogenous in cells; host or cells: OCI-LY10
Settings: OCI-LY10 cells, 4 hours; for OCI-LY10 % IRAK4 Degradation (0.01 uM): 0.01 uM compound; for OCI-LY10 % IRAK4 Degradation (0.1 uM): 0.1 uM compound; for OCI-LY10 % IRAK4 Degradation (1 uM): 1 uM compound
How it was run: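 IRAK4 loss after 4 h at 37° C was scored A (>50%), B (>20-50%) or C (<20%) from infrared western blots of RIPA lysates, 20-25 μg protein per lane. Compound was applied at 0.003-10 μM final to OCI-LY10 cells cultured in RPMI-1640 with 20% FBS and 55 μM 2-ME.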

Row | Compound | OCI-LY10 % IRAK4 Degradation (0.01 uM) | OCI-LY10 % IRAK4 Degradation (0.1 uM) | OCI-LY10 % IRAK4 Degradation (1 uM)
1 | NC(=O)c1nn(CCNCCOCCOCCNc2cccc3c2C(=O)N(C2CCC(=O)NC2=O)C3=O)cc1NC(=O)c1coc(-c2ccnc(NCC3CC3)c2)n1 (stereo not drawn) [I-326] | B (>20-50% degradation) | C (<20% degradation) | C (<20% degradation)
2 | Cn1c(=O)n(C2CCC(=O)NC2=O)c2ccc(CCCOCCOCCNCc3ccc(-n4cc(NC(=O)c5coc(-c6ccnc(NCC(F)(F)F)c6)n5)c(C(N)=O)n4)cc3)cc21 (stereo not drawn) [I-327] | C (<20% degradation) | B (>20-50% degradation) | A (>50% degradation)
3 | Cn1c(=O)n(C2CCC(=O)NC2=O)c2cccc(CCCOCCOCCNCc3ccc(-n4cc(NC(=O)c5coc(-c6ccnc(NCC(F)(F)F)c6)n5)c(C(N)=O)n4)cc3)c21 (stereo not drawn) [I-328] | A (>50% degradation) | A (>50% degradation) | A (>50% degradation)
4 | O=C1CCC(N2C(=O)c3cccc(NCCOCCN4CCO[C@H](CNCc5ccc(-n6cc(NC(=O)c7coc(-c8ccnc(NCC9CC9)c8)n7)c(C(F)F)n6)cc5)C4)c3C2=O)C(=O)N1 (stereo partly drawn) [I-329] | B (>20-50% degradation) | A (>50% degradation) | A (>50% degradation)
5 | O=C1CCC(N2C(=O)c3cccc(NCCOCCN4CCO[C@H](CNCc5ccc(-n6cc(NC(=O)c7coc(-c8ccnc(NCC9CC9)c8)n7)c(C(F)F)n6)cc5)C4)c3C2=O)C(=O)N1 (stereo partly drawn) [I-330] | C (<20% degradation) | A (>50% degradation) | A (>50% degradation)
6 | Cn1c(=O)n(C2CCC(=O)NC2=O)c2ccc(CCCOCCOCCNCc3ccc(-n4cc(NC(=O)c5coc(-c6ccnc(NCC7CC7)c6)n5)c(C(F)F)n4)cc3)cc21 (stereo not drawn) [I-331] | C (<20% degradation) | B (>20-50% degradation) | C (<20% degradation)
7 | NC(=O)c1nn(-c2ccc(C(=O)NCCCCCNCCNc3cccc4c3C(=O)N(C3CCCNC3=O)C4=O)cc2)cc1NC(=O)c1coc(-c2ccnc(NCC(F)(F)F)c2)n1 (stereo not drawn) [I-333] | C (<20% degradation) | C (<20% degradation) | C (<20% degradation)
8 | O=C1CCC(N2C(=O)c3ccc(NC4CCN(CCOCCOCCNCc5ccc(-n6cc(NC(=O)c7coc(-c8ccnc(NCC9CC9)c8)n7)c(C(F)F)n6)cc5)CC4)cc3C2=O)C(=O)N1 (stereo not drawn) [I-335] | C (<20% degradation) | C (<20% degradation) | A (>50% degradation)
9 | O=C1CCC(N2C(=O)c3cccc(N4CCN(CCOCCOCCNCc5ccc(-n6cc(NC(=O)c7coc(-c8ccnc(NCC9CC9)c8)n7)c(C(F)F)n6)cc5)CC4)c3C2=O)C(=O)N1 (stereo not drawn) [I-336] | C (<20% degradation) | C (<20% degradation) | B (>20-50% degradation)
10 | O=C1CCC(N2C(=O)c3ccc(N4CCN(CCOCCOCCNCc5ccc(-n6cc(NC(=O)c7coc(-c8ccnc(NCC9CC9)c8)n7)c(C(F)F)n6)cc5)CC4)cc3C2=O)C(=O)N1 (stereo not drawn) [I-337] | C (<20% degradation) | A (>50% degradation) | A (>50% degradation)
11 | O=C1CCC(N2C(=O)c3cccc(NC4CN(CCOCCOCCNCc5ccc(-n6cc(NC(=O)c7coc(-c8ccnc(NCC9CC9)c8)n7)c(C(F)F)n6)cc5)C4)c3C2=O)C(=O)N1 (stereo not drawn) [I-338] | C (<20% degradation) | B (>20-50% degradation) | B (>20-50% degradation)
12 | O=C1CCC(N2C(=O)c3ccc(NC4CN(CCOCCOCCNCc5ccc(-n6cc(NC(=O)c7coc(-c8ccnc(NCC9CC9)c8)n7)c(C(F)F)n6)cc5)C4)cc3C2=O)C(=O)N1 (stereo not drawn) [I-339] | C (<20% degradation) | B (>20-50% degradation) | A (>50% degradation)
13 | O=C1CCC(N2C(=O)c3cccc(NCc4cn(CCOCCOCCNCc5ccc(-n6cc(NC(=O)c7coc(-c8ccnc(NCC9CC9)c8)n7)c(C(F)F)n6)cc5)nn4)c3C2=O)C(=O)N1 (stereo not drawn) [I-340] | C (<20% degradation) | A (>50% degradation) | A (>50% degradation)
14 | O=C1CCC(N2C(=O)c3ccc(NCc4cn(CCOCCOCCNCc5ccc(-n6cc(NC(=O)c7coc(-c8ccnc(NCC9CC9)c8)n7)c(C(F)F)n6)cc5)nn4)cc3C2=O)C(=O)N1 (stereo not drawn) [I-341] | C (<20% degradation) | A (>50% degradation) | A (>50% degradation)
15 | O=C1CCC(N2C(=O)c3cccc(NCCc4cnnn4CCOCCOCCNCc4ccc(-n5cc(NC(=O)c6coc(-c7ccnc(NCC8CC8)c7)n6)c(C(F)F)n5)cc4)c3C2=O)C(=O)N1 (stereo not drawn) [I-342] | C (<20% degradation) | B (>20-50% degradation) | A (>50% degradation)
16 | O=C1CCC(N2C(=O)c3ccc(NCCc4cnnn4CCOCCOCCNCc4ccc(-n5cc(NC(=O)c6coc(-c7ccnc(NCC8CC8)c7)n6)c(C(F)F)n5)cc4)cc3C2=O)C(=O)N1 (stereo not drawn) [I-343] | C (<20% degradation) | B (>20-50% degradation) | A (>50% degradation)
17 | O=C1CCC(N2C(=O)c3ccc(OCc4cn(CCOCCOCCNCc5ccc(-n6cc(NC(=O)c7coc(-c8ccnc(NCC9CC9)c8)n7)c(C(F)F)n6)cc5)nn4)cc3C2=O)C(=O)N1 (stereo not drawn) [I-345] | C (<20% degradation) | A (>50% degradation) | A (>50% degradation)
18 | O=C1CCC(N2C(=O)c3cccc(OCCc4cnnn4CCOCCOCCNCc4ccc(-n5cc(NC(=O)c6coc(-c7ccnc(NCC8CC8)c7)n6)c(C(F)F)n5)cc4)c3C2=O)C(=O)N1 (stereo not drawn) [I-346] | B (>20-50% degradation) | A (>50% degradation) | A (>50% degradation)
19 | O=C1CCC(N2C(=O)c3ccc(OCCc4cnnn4CCOCCOCCNCc4ccc(-n5cc(NC(=O)c6coc(-c7ccnc(NCC8CC8)c7)n6)c(C(F)F)n5)cc4)cc3C2=O)C(=O)N1 (stereo not drawn) [I-347] | C (<20% degradation) | A (>50% degradation) | A (>50% degradation)
20 | O=C1CCC(N2C(=O)c3cccc(NCCOCCN4CCN(CCOCCNCc5ccc(-n6cc(NC(=O)c7coc(-c8ccnc(NCC9CC9)c8)n7)c(C(F)F)n6)cc5)CC4)c3C2=O)C(=O)N1 (stereo not drawn) [I-348] | C (<20% degradation) | C (<20% degradation) | A (>50% degradation)
21 | O=C1CCC(N2C(=O)c3ccc(NCCOCCN4CCN(CCOCCNCc5ccc(-n6cc(NC(=O)c7coc(-c8ccnc(NCC9CC9)c8)n7)c(C(F)F)n6)cc5)CC4)cc3C2=O)C(=O)N1 (stereo not drawn) [I-349] | C (<20% degradation) | B (>20-50% degradation) | A (>50% degradation)
22 | Cn1cc(-c2nc(C(=O)Nc3cn(-c4ccc(CNCCOCCOCCNc5ccc6c(c5)C(=O)N(C5CCC(=O)NC5=O)C6=O)cc4)nc3C(F)F)co2)cn1 (stereo not drawn) [I-353] | C (<20% degradation) | C (<20% degradation) | C (<20% degradation)
23 | O=C1CCC(N2C(=O)c3ccc(NCCOCCOCCNCc4ccc(-n5cc(NC(=O)c6coc(-c7ccnc(NCC8CC8)c7)n6)c(C(F)F)n5)cc4)cc3C2=O)C(=O)N1 (stereo not drawn) [I-354] | C (<20% degradation) | A (>50% degradation) | A (>50% degradation)
24 | CN(CCCc1cccc2c1C(=O)N(C1CCC(=O)NC1=O)C2=O)Cc1ccc(-n2cc(NC(=O)c3coc(-c4ccnc(NCC5CC5)c4)n3)c(C(F)F)n2)cc1 (stereo not drawn) [I-355] | B (>20-50% degradation) | B (>20-50% degradation) | C (<20% degradation)
25 | CN(CCCc1cccc2c1C(=O)N(C1CCC(=O)NC1=O)C2=O)Cc1ccc(-n2cc(NC(=O)c3coc(-c4ccncc4)n3)c(C(N)=O)n2)cc1 (stereo not drawn) [I-356] | C (<20% degradation) | C (<20% degradation) | C (<20% degradation)
26 | O=C1CCC(N2C(=O)c3cccc(CCCNCc4ccc(-n5cc(NC(=O)c6coc(-c7ccnc(NCC8CC8)c7)n6)c(C(F)F)n5)cc4)c3C2=O)C(=O)N1 (stereo not drawn) [I-357] | C (<20% degradation) | C (<20% degradation) | C (<20% degradation)
